Data on four molecules can be found in patent publication US12539273B2, “External nano liniment for gout and preparation method thereof” (priority 2021, dated 2026).

One data set has as its system patients with gout. In words: Preliminary human trial of preparation: crystal dissolution of gout crystals. The data set is classed as in vivo. The procedure:
The prepared nano liniment was applied to some patients with gout on trial. The gout treatment effect was obvious. The local application dosage was far below the dosage of the same oral medicine. The total dosage was safe.
Method of application: the nano liniment was applied to the gout parts (most foot joints, some hand joints or other parts) twice a day (every morning and evening), 1 ml of the corresponding nano liniment was applied every time, the gout (crystal) parts were photographed at different points in time before and after the nano liniment was applied, and the blood uric acid concentration (i.e. the uric acid value under fasting) of some patients with obvious crystal dissolution and lump elimination was also determined as a reference.

For data set [1] the following is noted: cited from earlier work; for cardiovascular and cerebrovascular and all-cause mortality: oral administration, statistic average period of 1 year.

Like-named read-outs stand apart in the source and are kept apart here.

For `OCc1ccc(O[C@@H]2O[C@H](CO)[C@@H](O)[C@H](O)[C@H]2O)cc1` [4-hydroxymethyl phenyl-beta-D-glucopyranoside], the analgesic effect entry in the data set with patients with gout (finding of the study, gout) is on record as “good analgesic effect”. Moreover, the gout treatment effect entry in the data set with patients with gout (patients with gout on trial) is on record as “good treatment effect on gout”.

Consider `Oc1ncnc2[nH]ncc12` [Allopurinol], for which the “cardiovascular and cerebrovascular and all-cause mortality” value in data set [1] was “mortality reaches up to 3.3%)”; in data set [1] (listed as allopurinol), 3.3%.

As for `Cc1nc(-c2ccc(OCC(C)C)c(C#N)c2)sc1C(=O)O` [Febuxostat], the entries for the “cardiovascular and cerebrovascular and all-cause mortality” value in data set [1] and in data set [1] (listed as febuxostat) were “reaches up to 4.1%)” and 4.1%, respectively.

Consider `N#Cc1cc(-c2n[nH]c(-c3ccncc3)n2)ccn1` [Topiroxostat], for which the Side effects entry in data set [1] (oral tablet, marketed gout medicine) is “effect on the liver and bile”.
